Source: patent US7033789B1, “DNA molecules encoding L-glutamate-gated chloride channels from Schistocerca americana” (Merck & Co., Inc., priority 1999, dated 2006)

Assays:
[1] = system: SaGluCl1 (short form “SC”) glutamate-gated chloride channel; experiment: Two microelectrode voltage clamp of Xenopus oocytes expressing SaGluCl1; assay type: cell-based, Schistocerca americana; settings: for current elicited on application of the compound: Xenopus oocyte, SaGluCl1 short form SC, membrane potential held at 0 mV (FIG. 3); for activation of the channel (chloride current): short form of SaGluCl1 in Xenopus laevis oocytes
From the text: The measurement is made with the two microelectrode voltage clamp technique and the membrane potential was held at 0 mV. Two current recordings are superimposed. The bars at top show the duration of application of glutamate and ivermectin phosphate.
Full length cDNA clones corresponding to the selected RT-PCR sequences were used as template for synthesis of in vitro transcribed RNA (Ambion Inc.). The full-length cDNA encoding SaGluCl1 in a Bluescript plasmid is linearized and capped cRNA transcripts are synthesized using appropriate oligonucleotide primers and the mMESSAGE mMACHINE in vitro RNA transcription kit from Ambion. Xenopus laevis oocytes were prepared and injected using standard methods as described (Arena et al., 1991, Mol. Pharmacol. 40: 368–374; Arena et al, 1992, Mol. Brain Res. 15: 339–348). Adult female Xenopus laevis were anesthetized with 0.17% tricaine methanesulfonate and the ovaries were surgically removed and placed in a dish consisting of (mM): NaCl 82.5, KCl 2, MgCl2 1, CaCl2 1.8, HEPES 5, adjusted to pH 7.5 with NaOH(OR-2). Ovarian lobes were broken open, rinsed several times, and gently shaken in OR-2 containing 0.2% collagenase (Sigma, Type 1A) for 2–5 hours. When approximately 50% of the follicular layers were removed, Stage V and VI oocytes were selected and placed in media consisting of (mM): NaCl 86, KCl 2, MgCl2 1, CaCl2 1.8, HEPES 5, Na pyruvate 2.5, theophylline 0.5, gentamicin 0.1 adjusted to pH 7.5 with NaOH (ND-96) for 24–48 hours before injection. For most experiments, oocytes were injected with 10 ng of cRNA in 50 nl of RNase free water. Control oocytes were injected with 50 nl of water. Oocytes were incubated for 1–5 days in ND-96 supplemented with […] gentamycin, 2.5 mM Na pyruvate and 0.5 mM theophylline before recording. Incubations and collagenase digestion were carried out at 18° C.
Voltage-clamp studies were conducted with the two microelectrode voltage clamp technique using a Dagan CA1 amplifier (Dagan Instruments, Minneapolis, Minn.). The current passing microelectrodes were filled with 0.7 M KCl plus 1.7 M K3-citrate and the voltage recording microelectrodes were filled with 1.0 M KCl. The extracellular solution for most experiments was saline consisting of (mM): NaCl 96, BaCl2 3.5, MgCl2 0.5, CaCl2 0.1, HEPES 5, adjusted to pH 7.5 with NaOH. The extracellular chloride concentration was reduced in some experiments by equimolar replacement of NaCl with the sodium salt of the indicated anion. Experiments were conducted at 21–24° C. Data were acquired using the program Pulse and most analysis was performed with the companion program Pulsefit (Instrutech Instruments, Great Neck, N.Y.) or with Igor Pro (Wavemetrics, Lake Oswego, Oreg.). Data were filtered (fc, −3 db) at 1 kHz, unless otherwise indicated. […] The measurement was made as described in this Example with the two microelectrode voltage clamp technique and the membrane potential was held at 0 mV. Two current recordings are superimposed. The bars at top show the duration of application of glutamate and ivermectin phosphate.

[2] = system: SaGluCl1 (short form “SC”) expressed in CHO cells; experiment: Current measurement in CHO cells expressing SaGluCl1; assay type: cell-based, Schistocerca americana
Method: FIG. 4A and FIG. 4B show the SaGluCl1 (short form “SC”) expressed in CHO cells assembles into a homomultimer and is activated by ivermectin (FIG. 4A) and nodulasporic acid (FIG. 4B). 100 nM ivermectin and 1 μM nodulasporic acid were added at 20 seconds and current was measured.
PTet-Splice subclones of SaGluCl1 and SaGluCl2 as disclosed in Example section 1 were transfected into CHO Tet-Off cells (Clontech labs, Inc.) using the Lipofectamine Plus reagent (Life Technologies Inc.). Stable cell lines are selected by growth in the presence of G418. Single G418 resistant clones are isolated and shown to contain the intact SaGluCl gene. Clones containing the SaGluCl cDNAs may be analyzed for expression using immunological techniques, such as immuneprecipitation, Western blot, and immunofluorescence using antibodies specific to the SaGluCl proteins. Antibody may obtained from rabbits innoculated with peptides that are synthesized from the amino acid sequence predicted from the SaGluCl sequences. Expression is also analyzed using patch clamp electrophysiological techniques, an anion flux assay, and ^3H-ivermectin and ^3H-glutamate binding assays.
The expression of recombinant SaGluCl1 and/or SaGluCl2 is achieved by transfection of the full-length SaGluCl cDNA into a mammalian host cell described herein.

Row | Compound | current elicited on application of the compound [1] | activation of the channel (chloride current) [1] | activation of homomultimer channel, current measured ([2]; 100 nM added at 20 seconds (FIG. 4A)) | activation of homomultimer channel, current measured ([2]; 1 μM added at 20 seconds (FIG. 4B))
1 | N[C@@H](CCC(=O)O)C(=O)O [glutamate, L-glutamate] | elicited a rapidly desensitizing current | robust L-glutamate-gated chloride current | – | –
2 | CC[C@H](C)[C@H]1O[C@]2(CC[C@@H]1C)C[C@@H]1C[C@@H](C/C=C(\C)[C@@H](O[C@H]3C[C@H](OC)[C@@H](O[C@H]4C[C@H](OC)[C@@H](O)[C@H](C)O4)[C@H](C)O3)[C@@H](C)/C=C/C=C3\CO[C@@H]4[C@H](O)C(C)=C[C@@H](C(=O)O1)[C@]34O)O2 [ivermectin, 22,23-dihydro-avermectin B1a] | – | activated | activated | –
3 | ivermectin phosphate | elicited a current of similar amplitude, but the channel stayed open much longer | – | – | –
4 | nodulasporic acid | – | activated | – | activated
